Drawing on patent US11384079B2, “6-5 fused rings as C5a inhibitors” (CHEMOCENTRYX, INC., priority 2017, dated 2022), this text covers IC50 for 25 compounds.

Structures are written as SMILES. Some results are limits rather than exact numbers.

For this test, the target named is T1, C5aR (Homo sapiens, UniProt P21730).
T1 construct: U937 cells are a monocytic cell line which express C5aR; host or cells: U937 cells (cAMP treated) or isolated neutrophils
T1 sequence (P21730 1-350): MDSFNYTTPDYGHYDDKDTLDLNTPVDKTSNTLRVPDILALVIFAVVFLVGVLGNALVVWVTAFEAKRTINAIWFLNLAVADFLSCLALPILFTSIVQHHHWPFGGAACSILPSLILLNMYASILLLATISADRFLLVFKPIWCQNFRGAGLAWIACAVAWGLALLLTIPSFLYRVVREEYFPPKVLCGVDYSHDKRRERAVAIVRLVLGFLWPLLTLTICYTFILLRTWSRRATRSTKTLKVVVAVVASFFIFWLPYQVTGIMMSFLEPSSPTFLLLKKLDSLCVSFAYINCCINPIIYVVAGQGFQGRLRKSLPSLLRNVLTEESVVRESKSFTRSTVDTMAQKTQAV
Put plainly: chemotaxis assay (C5aR mediated migration). The format is cell-based. Particulars: migration of U937 or neutrophil cells toward C5a (0.03 nM), 1.5 hours at 37° C., read-out: Mig IC50. The procedure, abridged: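 Migration of cAMP-treated U937 cells (0.5 mM overnight), or of human or murine neutrophils, toward C5a was measured through 5 μm polycarbonate filters in HBSS with 1% FBS. SDF-1α served as a specificity control. After 1.5 h at 37 °C, lower-chamber cells were counted directly or by CyQuant.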
What is called IC50 is the midpoint of a concentration-inhibition curve. With `Cc1cccc(C)c1-n1nc2c(c1-c1ccc(F)c3[nH]ccc13)CN(c1ncc(C(F)(F)F)cc1F)CC2` [Example 1.178], the half-inhibitory concentration (IC50) was 50 to 500 nM.

For `CCc1cccc(CC)c1-n1nc2c(c1-c1ccc(F)c3[nH]ccc13)CN(c1ncc(C(F)(F)F)cn1)CC2` [Example 1.179], the IC50 is below 5 nM. On to `CCc1cccc(CC)c1-n1nc2c(c1-c1ccc(F)c3[nH]ccc13)CN(c1ncc(C(C)C)cc1F)CC2` [Example 1.180], for which the IC50 was below 5 nM. As to `CCc1cccc(CC)c1-n1nc2c(c1-c1ccc(C)c3[nH]ccc13)CN(c1ncc(C(F)(F)F)cc1F)CC2` [Example 1.181], the half-maximal inhibitory concentration (IC50) is below 5 nM. In the case of `CCc1cccc(CC)c1-n1nc2c(c1-c1c(F)cc(F)c3[nH]ccc13)CN(c1ncc(C(F)(F)F)cc1F)CC2` [Example 1.182], the IC50 is 5 to 50 nM. `CCc1cccc(CC)c1-n1nc2c(c1-c1ccc(F)c3[nH]ccc13)CN(c1ncc(C(F)(F)F)cc1Cl)CC2` [Example 1.183]: the IC50 was 5 to 50 nM.

In the case of `CCc1cccc(CC)c1-n1nc2c(c1-c1ccc(F)c3[nH]ccc13)CN(c1ncc(Cl)cn1)CC2` [Example 1.184], the half-inhibitory concentration (IC50) was below 5 nM.

For the compound `CCc1cccc(CC)c1-n1nc2c(c1-c1ccc(Cl)c3[nH]ccc13)CN(c1ncc(C(F)(F)F)cc1F)CC2` [Example 1.185], the IC50 was below 5 nM. Consider `Cc1cccc(OCC(C)C)c1-n1nc2c(c1-c1ccc3[nH]ccc3c1)CN(C(=O)NC(C)(C)C)CC2` [Example 1.186], for which the IC50 lay within 50 to 500 nM. `CCc1cccc(CC)c1-n1nc2c(c1-c1ccc(F)c3[nH]ccc13)CN(c1ncc(Cl)cc1Cl)CC2` [Example 1.187]: the IC50 is below 5 nM. In the case of `CCc1cccc(CC)c1-n1nc2c(c1-c1ccc(F)c3[nH]ccc13)CN(c1ncc(C(F)(F)F)cc1F)CC2` [Example 1.188], the IC50 was below 5 nM. Regarding `Cc1cccc(C)c1-n1nc2c(c1-c1cc(C)c3[nH]ccc3c1)CN(c1ncc(Cl)cc1Cl)CC2` [Example 1.189], the IC50 lay in the range of 50 to 500 nM. Turning to `Cc1cccc(C)c1-n1nc2c(c1-c1ccc3[nH]cc(C#N)c3c1)CN(c1ncc(Cl)cc1Cl)CC2` [Example 1.190], the IC50 was above 500 nM. On to `Cc1cccc(C)c1-n1nc2c(c1-c1cc(Cl)c3[nH]ccc3c1)CN(c1ncc(Cl)cc1Cl)CC2` [Example 1.191], for which the concentration for half-maximal inhibition (IC50) fell in the range of 50 to 500 nM. On to `Cc1cccc(C)c1-n1nc2c(c1-c1ccc3[nH]ncc3c1)CN(c1ncc(Cl)cc1Cl)CC2` [Example 1.192], for which the half-inhibitory concentration (IC50) is above 500 nM. Take `Cc1cccc(C)c1-n1nc2c(c1-c1cc3cc[nH]c3cc1F)CN(c1ncc(Cl)cc1Cl)CC2` [Example 1.193]: the IC50 is 50 to 500 nM. Regarding `Cc1cccc(C)c1-n1nc2c(c1-c1cc(F)c3[nH]ccc3c1)CN(c1ncc(Cl)cc1Cl)CC2` [Example 1.194], the IC50 is 50 to 500 nM.

`Cc1cccc(C)c1-n1nc2c(c1-c1ccc3[nH]ccc3c1F)CN(c1ncc(Cl)cc1Cl)CC2` [Example 1.195]: the IC50 fell in the range of 5 to 50 nM.

For `Cc1cccc(C)c1-n1nc2c(c1-c1cccc3[nH]ccc13)CN(c1ncc(Cl)cc1Cl)CC2` [Example 1.196], the IC50 was 5 to 50 nM.

For `Cc1cccc(C)c1-n1nc2c(c1-c1ccc3[nH]ccc3c1)CN(c1ncc(Cl)cc1Cl)CC2` [Example 1.197], the IC50 was in the range of 5 to 50 nM. Consider `Cc1cccc(OCC(C)C)c1-n1nc2c(c1-c1cccc3[nH]ccc13)CN(c1ncc(C(C)C)cc1F)CC2` [Example 1.198], for which the 50% inhibitory concentration (IC50) was 5 to 50 nM. For `Cc1cccc(OCC(C)C)c1-n1nc2c(c1-c1ccc3[nH]ccc3c1)CN(C(C)(C)c1ccccc1)CC2` [Example 1.199], the half-maximal inhibitory concentration (IC50) was below 5 nM. Take `Cc1cccc(OCC(C)C)c1-n1nc2c(c1-c1ccc3[nH]ccc3c1)CN(c1ncc(Cl)cc1Cl)CC2` [Example 1.200]: the half-maximal inhibitory concentration (IC50) was below 5 nM. Regarding `Cc1cccc(OCC(C)C)c1-n1nc2c(c1-c1cccc3[nH]ccc13)CN(c1ncc(Cl)cc1Cl)CC2` [Example 1.201], the IC50 was 5 to 50 nM.

As for `CCc1cccc(CC)c1-n1nc2c(c1-c1ccc3[nH]ccc3c1)CN(C(C)c1ccccc1C(F)(F)F)CC2` (stereo not shown) [Example 1.202], the IC50 lay in the range of 5 to 50 nM.
